Data: US8664276B2, “Stilbene analogs and methods of treating cancer” (University of Kentucky Research Foundation, priority 2011, dated 2014)
“Also recorded” adds a separate entry of the source.

Assays:
LS174 tumor xenografts = test: LS174 tumor xenograft in nude mice; assay type: in vivo
Description: Tumor xenograft in nude mice. LS174 or HT29 colon cancer cells (2×10^6) were injected subcutaneously into both flanks of 6-8 week C57BL/6J athymic nude mice as described in Zhang et al., Mol Cell Biol 2006, 26, 2055-2064. Compound 4r or 4dd was dissolved in corn oil or PEG400. The mice were treated with 20 mg/kg/day of 4r by ip injection or gavage (50 μl/mouse). Control mice were treated with same volume of corn oil or PEG400. The body weight and tumor growth were analyzed twice weekly for one month. Tumor size was measured using digital caliper. The tumor volume was calculated by the formula: V=½LW^2 (mm^3).
In this example, the effects of the stilbene analogs of the present disclosure on CRC cells growth was analyzed. […] To test the effects of compound 4r on tumor growth in vivo, LS174 cells were injected subcutaneously into the flanks of athymic nude mice, which had been randomized into two groups. One group of mice was treated with compound 4r (20 mg/kg/day) dissolved in corn oil by intraperitoneal (ip) injection. The control mice were treated with the same volume of corn oil (50 μL) by ip injection. The mice were weighted and tumors measured twice weekly.

β-catenin target genes = test: RT-PCR of β-catenin target genes in LS174 cells; assay type: cell-based; settings: RT-PCR
Description: RT-PCR. LS174 cells were treated with DMSO or Wnt inhibitors. After 36 h, RNA was isolated using the RNeasy kit (Qiagen). RT-PCR was performed as described in Zhang et al., Mol Cell Biol 2006, 26, 2055-2064. The following primers were used: β-actin: 5′-CAACCGCGAGAAGATGAC-3′ (SEQ ID NO:01), 5′-AGGAAGGCTGGAAGAGTG-3′ (SEQ ID NO:02); surivivin: 5′-[…]-3′ (SEQ ID NO:03), 5′-[…]-3′ (SEQ ID NO:04); c-Myc: 5′-TGGGCTGTGAGGAGGTTTG-3′ (SEQ ID NO:05), 5′-TATGTGGAGCGGCTTCTCG-3′ (SEQ ID NO:06); Axin2: 5′-[…]-3′ (SEQ ID NO:07), 5′-[…]-3′ (SEQ ID NO:08); TCF4: 5′-[…]-3′ (SEQ ID NO:09), 5′-[…]-3′ (SEQ ID NO:10); pygopus2: 5′-GGCCGGTCTGCAAATGAAG-3′ (SEQ ID NO:11), 5′-TCCACCTCCAGTGCTGTAG-3′ (SEQ ID NO:12); Lgr5: 5′-[…]-3′ (SEQ ID NO:13), 5′-[…]-3′ (SEQ ID NO:14); CD44: 5′-[…]-3′ (SEQ ID NO:15), 5′-[…]-3′ (SEQ ID NO:16); Ki67: 5′-[…]-3′ (SEQ ID NO:17), 5′-[…]-3′ (SEQ ID NO:18).
(§1) Cyclin B1 levels were decreased, whereas p21^WAF1/CIP1 levels increased, consistent with the fact that p21^WAF1/CIP1 expression is repressed by c-Myc. β-catenin levels were not affected by resveratrol. Next, the mRNA levels of β-catenin target genes were analyzed using RT-PCR. Expression of survivin, Lgr5, CD44, and c-Myc were decreased in resveratrol-treated cells.

[1] = tested on: Wnt target genes, Axin2 and c-Myc; test: Western blot of Wnt target proteins in LS174 CRC cells; assay type: cell-based
Description: Western blot. Western blots were performed using the following antibodies: β-catenin (Sigma, C2206), c-Myc (Epitomics, 1472-1), Axin2 (Cell Signaling, 2151), β-Actin (Sigma, A1978), TCF4 (Epitomics, 2114-1) and pygopus2 (Santa Cruz, sc-74878), Cyclin D1 (Cell signaling, 2926).
as §1
A panel of stilbene analogs was designed and synthesized (FIGS. 2, 3, 5A and 6A). […] However, the solubility of 4d was poor and it was not effective below 10 μM concentrations (data not shown). To improve its solubility and activity, compound 4d was modified with 2′-fluoro 4e, 3′-fluoro 4f and 4′-fluoro 4g substituents (FIG. 5D). Both compounds 4e and 4f had good activity at 10 μM, (E)-4-(2-fluorostyryl)-N,N-dimethylaniline.
Western blot and cell proliferation assay. The activity of fluorinated N,N-dialkylaminostilbenes (FIDAS or FIDAS agents) on Wnt signaling activity in cancer cells were analyzed by Western blot with antibodies against Wnt target genes, such as c-Myc, Axin2. The effects of FlDAS agents on cancer cell growth were analyzed using Cell Viability Analyzer (Beckman Coulter, Vi-Cell XR). These assays have been described previously (see Zhang et al., J. of Med. Chem. 54, 1288-1297 (2011)).

In the case of CN(C)c1ccc(/C=C/c2c(F)cccc2F)cc1 [4r, (E)-4-(2,6-Difluorostyryl)-N,N-dimethylaniline], the “body weight versus control mice” value (LS174 tumor xenografts; 20 mg/kg/day ip in corn oil, within one month) is reported as “no significant difference”, the “growth of tumor xenografts” value (LS174 tumor xenografts; LS174, 20 mg/kg/day ip in corn oil) is reported as “significantly inhibited” and the “transcription of TCF4 genes” value (β-catenin target genes) is reported as “inhibited”. The “transcription of Wnt target genes” value (β-catenin target genes) was “strongly inhibited”, the “transcription of pygopus2 genes” value (β-catenin target genes) was “no significant effects” and the “repression of Wnt target genes at 10 μM” value ([1]; 10 μM, CRC cells) was “repress Wnt target genes; also recorded: reduced the protein levels”. For the same compound, the “Wnt inhibitory activity in Western blot, qualitative or relative to a comparator” value ([1]; CRC cells) was “more active than compound 4e; also recorded: best activity”, the “protein levels of TCF4 and pygopus2” value ([1]; CRC cells) was “reduced” and the “inhibition of Wnt target genes at 2.5 μM” value ([1]; LS174 CRC cells, 2.5 μM) was “significantly inhibited”.
